Each structure is given as a SMILES string. Counter-ions that a name gives are not always drawn. Where only a bound is given, the exact number is not on record here.

Our source for the Kd and IC50 values is patent publication US20120129811A1, “TRICYCLIC INHIBITORS OF PRO-MATRIX METALLOPROTEINASE ACTIVATION” (priority 2010, published 2012).

Test [1] concerns the target T1, proMMP9(20-445;ΔFnII) (SEQ ID NO:6) (Homo sapiens, UniProt P14780, DEL216-390).
T1 construct: start methionine (N); made in house; host or cells: E. coli BL21(DE3) RIL
T1 sequence (P14780 with tags, fused parts or gaps DEL216-390): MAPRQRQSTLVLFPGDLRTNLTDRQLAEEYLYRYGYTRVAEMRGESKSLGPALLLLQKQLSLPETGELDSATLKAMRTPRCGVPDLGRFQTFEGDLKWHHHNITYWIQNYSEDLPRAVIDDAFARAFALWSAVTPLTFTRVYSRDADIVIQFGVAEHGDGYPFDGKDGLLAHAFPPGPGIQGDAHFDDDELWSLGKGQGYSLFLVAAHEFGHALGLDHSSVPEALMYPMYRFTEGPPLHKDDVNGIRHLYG
The experiment in a line: ThermoFluor binding assay with proMMP9(20-445;ΔFnII). The method in brief:
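Protein thermal stability was measured with 2.8 μM proMMP9(20-445;ΔFnII) and 50 μM 1,8-ANS in 50 mM HEPES pH 7.0, 100 mM NaCl, 0.001% Tween-20, 2.5 mM MgCl2, 300 μM CaCl2, across serial compound dilutions. Samples were heated 40–90° C at 1° C/min with fluorescence read at 500 nm. Tm was fitted, and binding was derived from thermodynamic parameters obtained by DSC and ThermoFluor.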

The target in test [2] is T2, proMMP9(67-444;ΔFnII) (SEQ ID NO:5) (Homo sapiens, UniProt P14780, DEL216-390).
T2 construct: start methionine (N); made in house; host or cells: E. coli BL21(DE3) RIL
T2 sequence (P14780 with tags, fused parts or gaps DEL216-390): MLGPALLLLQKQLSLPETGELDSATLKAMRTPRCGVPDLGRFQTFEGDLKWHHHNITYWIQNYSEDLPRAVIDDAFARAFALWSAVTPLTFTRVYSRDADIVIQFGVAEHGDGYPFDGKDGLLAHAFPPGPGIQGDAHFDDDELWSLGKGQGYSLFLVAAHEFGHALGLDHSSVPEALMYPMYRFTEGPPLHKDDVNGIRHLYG
The experiment in a line: ThermoFluor binding assay with proMMP9(67-444;ΔFnII). The method in brief:
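Thermal shift of 3.5 μM proMMP9(67-444;ΔFnII), desalted beforehand, with 50 μM 1,8-ANS in 50 mM HEPES pH 7.0, 100 mM NaCl, 2.5 mM MgCl2, 300 μM CaCl2, 0.001% Tween-20. Heated 40–90 °C at 1 °C/min, fluorescence read at 500 nm; binding fitted from Tm shifts using DSC- and ThermoFluor-derived unfolding parameters.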
Background: DSF heats the sample and reads unfolding from a dye or from intrinsic fluorescence.

The target in test [3] is T3, proMMP13(1-268) (SEQ ID NO:7) (Homo sapiens, UniProt P45452).
T3 construct: 6xHis (C); made in house; host or cells: HEK293 (transient, secreted)
The experiment in a line: ThermoFluor binding assay with proMMP13(1-268). As for the experimental part:
The ThermoFluor® (TF) assay is a 384-well plate-based binding assay that measures thermal stability of proteins (Biomol Screen 2001, 6, 429-40; Biochemistry 2005, 44, 5258-66). The experiments were carried out using instruments available from Johnson & Johnson Pharmaceutical Research & Development, LLC. TF dye used in all experiments was […] (1,8-ANS) (Invitrogen: A-47).
Compounds were arranged in a pre-dispensed plate (Greiner Bio-one: 781280), wherein compounds were serially diluted in 100% DMSO across 11 columns within a series. Columns 12 and 24 were used as DMSO reference and contained no compound. For multiple compound concentration-response experiments, the compound aliquots (50 nL) were robotically predispensed directly into black 384-well polypropylene PCR microplates (Abgene: TF-0384/k) using a Cartesian Hummingbird liquid handler (DigiLab, Holliston, Mass.). Following compound dispense, protein and dye solutions were added to achieve the final assay volume of 3 μL. The assay solutions were overlayed with 1 μL of silicone oil (Fluka, type DC 200: 85411) to prevent evaporation.
Assay plates were robotically loaded onto a thermostatically controlled PCR-type thermal block and then heated from 40 to 90° C. at a ramp-rate of 1° C./min for all experiments. Fluorescence was measured by continuous illumination with UV light (Hamamatsu LC6) supplied via fiber optics and filtered through a band-pass filter (380-400 nm; >60D cutoff). Fluorescence emission of the entire 384-well plate was detected by measuring light intensity using a CCD camera (Sensys, Roper Scientific) filtered to detect 500±25 nm, resulting in simultaneous and independent readings of all 384 wells. A single image with 20-sec exposure time was collected at each temperature, and the sum of the pixel intensity in a given area of the assay plate was recorded vs temperature and fit to standard equations to yield the Tm (J Biomol Screen 2001, 6, 429-40).
Thermodynamic parameters necessary for fitting compound binding for each proMMP were estimated by differential scanning calorimetry (DSC) and from ThermoFluor® data. The heat capacity of unfolding for each protein was estimated from the molecular weight and from ThermoFluor® dosing data.
ThermoFluor® with proMMP13(1-268) (SEQ ID NO: 7)
The proMMP13(1-268) (SEQ ID NO:7) protein sample preparations included a desalting buffer exchange step via a PD-10 gravity column (GE Healthcare). The desalting buffer exchange was performed prior to diluting the protein to the final assay concentration of 3.5 μM. The concentration of proMMP13(1-268) (SEQ ID NO:7) was estimated spectrophotometrically based on a calculated extinction coefficient of ε280=37000 M^−1 cm^−1, a calculated molecular weight of 30.8 kDa, and calculated pI of 5.33. ThermoFluor® reference conditions were defined as follows: 100 μg/mL proMMP13(1-268) (SEQ ID NO:7), 25 μM 1,8-ANS, pH 7.0 Buffer (50 mM HEPES pH 7.0, 100 mM NaCl, 0.001% Tween-20, 2.5 mM MgCl2, 300 μM CaCl2). The thermodynamic parameters for proMMP13(1-268) (SEQ ID NO:7) are as follows: Tm (° C.)=67 (+/−0.1), ΔUH(Tm)) (cal mol^−1)=107000(+/−5000), ΔUSTm (cal mol^−1 K^−1)=318, ΔUCp (cal mol^−1 K^−1)=2600.

Test [4] concerns the target T4, full-length proMMP9(1-707) activation by catalytic MMP3 (Homo sapiens, UniProt P14780, R574P).
T4 construct: made in house; host or cells: proMMP9: HEK293 (secreted); MMP3: E. coli
The experiment in a line: proMMP9/MMP3 P126 Activation Assay. It counts as biochemical. Here is the method: proMMP9/MMP3 P126 Activation Assay
The reaction volume was 50 μL. […] Reactivity of residual MMP3 towards P-126 substrate was minimal under these conditions.

T4 sequence (P14780 20-707 R574P): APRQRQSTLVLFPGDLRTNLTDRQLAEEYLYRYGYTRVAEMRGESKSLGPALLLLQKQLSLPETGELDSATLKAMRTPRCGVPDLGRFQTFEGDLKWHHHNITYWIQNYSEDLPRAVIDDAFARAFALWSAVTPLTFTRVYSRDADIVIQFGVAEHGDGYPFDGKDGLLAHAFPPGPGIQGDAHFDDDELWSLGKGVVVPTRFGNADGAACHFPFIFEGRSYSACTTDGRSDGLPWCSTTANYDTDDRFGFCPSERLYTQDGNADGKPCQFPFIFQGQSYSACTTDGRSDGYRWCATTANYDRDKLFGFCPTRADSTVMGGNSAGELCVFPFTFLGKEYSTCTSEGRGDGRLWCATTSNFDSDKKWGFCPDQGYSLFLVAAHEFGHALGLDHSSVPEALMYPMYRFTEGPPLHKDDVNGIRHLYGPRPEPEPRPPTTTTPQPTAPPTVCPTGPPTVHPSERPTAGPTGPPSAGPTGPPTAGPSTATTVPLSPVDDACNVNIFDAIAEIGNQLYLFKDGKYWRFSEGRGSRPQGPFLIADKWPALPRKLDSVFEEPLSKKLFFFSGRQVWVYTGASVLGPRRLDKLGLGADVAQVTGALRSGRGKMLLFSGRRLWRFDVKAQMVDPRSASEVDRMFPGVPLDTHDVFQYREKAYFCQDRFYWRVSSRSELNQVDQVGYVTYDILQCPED

For the molecule `CC(C)Oc1ccc(C(N)=O)cc1Nc1nc2c(ccc3[nH]c(CO)nc32)s1` [Example 21, 3-(7-Hydroxymethyl-6H-imidazo[4′,5′:3,4]-benzo[2,1-d]thiazol-2-ylamino)-4-isopropoxy-benzamide.HCl], the Kd was 410 nM in test [1], 330 nM in test [2] and 3500 nM in test [3]. In test [4], this molecule displayed an IC50 of 500 nM.
`CC(C)Oc1ccc(C(N)=O)cc1Nc1nc2c(ccc3nc(N)sc32)s1` [Example 5, 3-(2-Amino-benzo[1,2-d;3,4-d′]bisthiazol-7-ylamino)-4-isopropoxy-benzamide.TFA]: the Kd in test [1] came out at 320 nM; in test [2], 410 nM; in test [3], 730 nM. The concentration for half-maximal inhibition (IC50) in test [4] was 920 nM.
On to `COc1ccc(C)cc1Nc1nc2c(ccc3c2ncn3C)s1` [Example 41, (2-Methoxy-5-methyl-phenyl)-(6-methyl-6H-imidazo[4′,5′:3,4]benzo[2,1-d]thiazol-2-yl)-amine.HCl], for which the Kd in test [1] amounted to 4200 nM; in test [2], 900 nM; in test [3] it was 7700 nM. The molecule also registered a 50% inhibitory concentration (IC50) in test [4] of 720 nM.
With `COc1ccc(C(N)=O)cc1Nc1nc2c(ccc3c2ncn3C)s1` [Example 39, 4-Methoxy-3-(6-methyl-6H-imidazo[4′,5′:3,4]benzo[2,1-d]thiazol-2-ylamino)-benzamide.HCl], the dissociation constant Kd in test [1] was determined as 440 nM; in test [2] it was 52 nM; in test [3] it was 1500 nM. The same molecule showed an IC50 in test [4] of 94 nM.
The like results for `Cc1nc2c(ccc3sc(Nc4cc(C(=O)O)ccc4OC(C)C)nc32)[nH]1` [Example 20, 4-Isopropoxy-3-(7-methyl-6H-imidazo[4′,5′:3,4]-benzo[2,1-d]thiazol-2-ylamino)-benzoic acid.HCl] were, in that order, 1400 nM, 190 nM, 1900 nM and 240 nM.
For `Nc1nc2c(ccc3sc(Nc4cccc(C(=O)O)c4)nc32)[nH]1` [Example 15, 3-(7-Amino-6H-imidazo[4′,5′:3,4]benzo[2,1-d]thiazol-2-ylamino)-benzoic acid.TFA], the results for the Kd in test [1], in test [2] and in test [3] were greater than 95000 nM, 9900 nM and 33000 nM, respectively. For the same molecule, 3500 nM corresponded to half-maximal inhibition in test [4] (IC50).
With `CCn1c(C)nc2ccc3sc(Nc4cc(S(N)(=O)=O)ccc4OC)nc3c21` [Example 129, 3-(8-Ethyl-7-methyl-8H-imidazo[4′,5′:3,4]benzo[2,1-d]thiazol-2-ylamino)-4-methoxy-benzenesulfonamide.TFA], the dissociation constant (Kd) is 1200 nM in test [1] and 520 nM in test [2]. Further, the IC50 in test [4] was determined as 420 nM.
As to `COc1ccc(S(C)(=O)=O)cc1Nc1nc2c(ccc3nc(C)n(CC(F)(F)F)c32)s1` [Example 138, (5-Methanesulfonyl-2-methoxy-phenyl)-[7-methyl-8-(2,2,2-trifluoro-ethyl)-8H-imidazo[4′,5′:3,4]benzo[2,1-d]thiazol-2-yl]-amine.TFA], the Kd in test [1] was 690 nM; in test [2], 480 nM. This molecule had a half-inhibitory concentration (IC50) in test [4] of 560 nM.
For `CCn1c(C)nc2ccc3sc(Nc4cc(S(N)(=O)=O)ccc4OC(F)(F)F)nc3c21` [Example 122, 3-(8-Ethyl-7-methyl-8H-imidazo[4′,5′:3,4]benzo[2,1-d]thiazol-2-ylamino)-4-trifluoromethoxy-benzenesulfonamide.TFA], the Kd was 1200 nM in test [1] and 340 nM in test [2]. The molecule also had an IC50 in test [4] of 650 nM.
Turning to `COc1ccc(Br)cc1Nc1nc2c(ccc3c2ncn3C)s1` [Example 69, (5-Bromo-2-methoxy-phenyl)-(6-methyl-6H-imidazo[4′,5%3,4]benzo[2,1-d]thiazol-2-yl)-amine.HCl], the equilibrium dissociation constant (Kd) in test [1] came out at 430 nM; in test [2], 220 nM. Moreover, it took 300 nM to reach half-maximal inhibition in test [4] (IC50).
Regarding `Cn1cnc2c(Nc3nc4c(ccc5c4ncn5C)s3)cccc21` [Example 73, (1-Methyl-1H-benzoimidazol-4-yl)-(6-methyl-6H-imidazo[4′,5′:3,4]-benzo[2,1-d]thiazol-2-yl)-amine.HCl], the dissociation constant Kd worked out at 13000 nM in test [1] and 7500 nM in test [2]. Also, the IC50 in test [4] worked out at 5800 nM.
Take `Cc1nc2ccc3sc(Nc4cc(S(N)(=O)=O)ccc4OC(C)C)nc3c2n1C` [Example 119, 3-(7,8-Dimethyl-8H-imidazo[4′,5′:3,4]-benzo[2,1-d]thiazol-2-ylamino)-4-isopropoxy-benzenesulfonamide.TFA]: the equilibrium dissociation constant (Kd) was 910 nM in test [1] and 1200 nM in test [2]. In test [4], the IC50 came to 500 nM.
In the case of `COc1ccc(Nc2nc3c(ccc4c3ncn4C)s2)c(OC)c1` [Example 78, (2,4-Dimethoxy-phenyl)-(6-methyl-6H-imidazo[4′,5′:3,4]-benzo[2,1-d]thiazol-2-yl)-amine.HCl], the equilibrium dissociation constant (Kd) amounted to 10000 nM in test [1] and 3400 nM in test [2]. This molecule came in with an IC50 in test [4] of 4000 nM.
Regarding `CCN(CC)S(=O)(=O)c1ccc(OC)c(Nc2nc3c(ccc4c3ncn4C)s2)c1` [Example 71, N,N-Diethyl-4-methoxy-3-(6-methyl-6H-imidazo[4′,5′:3,4]-benzo[2,1-d]thiazol-2-ylamino)-benzenesulfonamide.HCl], the dissociation constant (Kd) in test [1] was 2000 nM; in test [2] it was 1600 nM. Besides, the 50% inhibitory concentration (IC50) in test [4] amounted to 1500 nM.
Turning to `Cc1nc2ccc3sc(Nc4cc(S(N)(=O)=O)ccc4OC(F)(F)F)nc3c2n1C` [Example 126, 3-(7,8-Dimethyl-8H-imidazo[4′,5′:3,4]-benzo[2,1-d]thiazol-2-ylamino)-4-trifluoromethoxy-benzenesulfonamide.TFA], the Kd in test [1] is greater than 95000 nM; in test [2] it was 2200 nM. Further, it took 460 nM to reach half-maximal inhibition in test [4] (IC50).
As to `NS(=O)(=O)c1ccc(OC(F)(F)F)c(Nc2nc3c(ccc4cnccc43)s2)c1` [Example 98, 3-(Thiazolo[4,5-f]isoquinolin-2-ylamino)-4-trifluoromethoxy-benzenesulfonamide.TFA], the dissociation constant (Kd) was 7600 nM in test [1] and 3000 nM in test [2]. Also, the half-maximal inhibitory concentration (IC50) in test [4] is greater than 20000 nM.

Broadly, the Kd is the constant that tells how readily two partners part at equilibrium. Lower therefore signals higher affinity. A word on the IC50: it is the concentration at which inhibition is half-maximal. Read a low IC50 as higher potency.
